In ChEMBL document CHEMBL3044676, “Effect of Antibiotics on Formation of Aerial Mycelium and Production of Phytotoxins in Streptomyces spp” (2003):
Active and inactive are the calls of the source. The rule behind the calls is not given here.

What was measured:
[1] = system: Streptomyces scabiei; assay: Reduction in thaxtomin A production in Streptomyces scabiei ATCC 4917314 at 1.2 ug/ml after 5 days relative to untreated control; assay type: functional; design: scale not given: the % may be the effect or the level left
[2] = system: Streptomyces acidiscabies; assay: Reduction in concanamycins A and B production in Streptomyces acidiscabies ATCC 4900315 at 1.5 ug/ml after 5 days relative to untreated control; assay type: functional, organism-based
[3] = system: Streptomyces alboniger; assay: Antimicrobial activity against Streptomyces alboniger IFO 12738 assessed as inhibition of aerial mycelial growth at 0.04 ug/disk after 5 days by paper disk method; assay type: functional, organism-based
[4] = system: Streptomyces acidiscabies; assay: Antimicrobial activity against Streptomyces acidiscabies ATCC 4900315 assessed as inhibition of aerial mycelial growth at 4 ug/disk after 5 days by paper disk method; assay type: functional; conditions: for zone of inhibition at 4 µg/disc: ATCC 4900315, 120 h, read-out: DIZ
[5] = system: Streptomyces alboniger; assay: Antimicrobial activity against Streptomyces alboniger IFO 12738 assessed as inhibition of aerial mycelial growth at 0.4 ug/disk after 5 days by paper disk method; assay type: functional
[6] = system: Streptomyces acidiscabies; assay: Antimicrobial activity against Streptomyces acidiscabies ATCC 4900315 assessed as inhibition of growth at 4 ug/disk after 5 days by paper disk method; assay type: functional; conditions: for zone of inhibition at 4 µg/disc: ATCC 4900315, 120 h, read-out: DIZ
[7] = system: Streptomyces alboniger; assay: Antimicrobial activity against Streptomyces alboniger IFO 12738 assessed as inhibition of aerial mycelial growth at 4 ug/disk after 5 days by paper disk method; assay type: functional
[8] = system: Streptomyces scabiei; assay: Antimicrobial activity against Streptomyces scabiei ATCC 4917314 assessed as inhibition of aerial mycelial growth at 0.04 ug/disk after 5 days by paper disk method; assay type: functional; conditions: for zone of inhibition at 0.04 µg/disc: ATCC 4917314, 120 h, read-out: DIZ
[9] = system: Streptomyces scabiei; assay: Reduction in concanamycins A and B production in Streptomyces scabiei ATCC 4917314 at 1.2 ug/ml after 5 days relative to untreated control; assay type: functional; design: scale not given: the % may be the effect or the level left
[10] = system: Streptomyces scabiei; assay: Antimicrobial activity against Streptomyces scabiei ATCC 4917314 assessed as inhibition of aerial mycelial growth at 4 ug/disk after 5 days by paper disk method; assay type: functional; conditions: for zone of inhibition at 4 µg/disc: ATCC 4917314, 120 h, read-out: DIZ
[11] = system: Streptomyces scabiei; assay: Antimicrobial activity against Streptomyces scabiei ATCC 4917314 assessed as mycelial weigh change at 1.2 ug/ml after 5 days relative to untreated control; assay type: functional
[12] = system: Streptomyces acidiscabies; assay: Antimicrobial activity against Streptomyces acidiscabies ATCC 4900315 assessed as inhibition of aerial mycelial growth at 0.4 ug/disk after 5 days by paper disk method; assay type: functional; conditions: for zone of inhibition at 0.4 µg/disc: ATCC 4900315, 120 h, read-out: DIZ
[13] = system: Streptomyces scabiei; assay: Antimicrobial activity against Streptomyces scabiei ATCC 4917314 assessed as inhibition of aerial mycelial growth at 0.40 ug/disk after 5 days by paper disk method; assay type: functional; conditions: for zone of inhibition at 0.4 µg/disc: ATCC 4917314, 120 h, read-out: DIZ
[14] = system: Streptomyces acidiscabies; assay: Antimicrobial activity against Streptomyces acidiscabies ATCC 4900315 assessed as mycelial weigh change at 1.5 ug/ml after 5 days relative to untreated control; assay type: functional
[15] = system: Streptomyces acidiscabies; assay: Reduction in thaxtomin A production in Streptomyces acidiscabies ATCC 4900315 at 1.5 ug/ml after 5 days relative to untreated control; assay type: functional; design: scale not given: the % may be the effect or the level left
[16] = system: Streptomyces acidiscabies; assay: Antimicrobial activity against Streptomyces acidiscabies ATCC 4900315 assessed as inhibition of aerial mycelial growth at 0.04 ug/disk after 5 days by paper disk method; assay type: functional
[17] = system: Streptomyces scabiei; assay: Antimicrobial activity against Streptomyces scabiei ATCC 4917314 assessed as inhibition of growth at 4 ug/disk after 5 days by paper disk method; assay type: functional; conditions: ATCC 4917314, 120 h, read-out: DIZ
[18] = system: Streptomyces scabiei; assay: Growth stimulation of Streptomyces scabiei ATCC 4917314 at 4 ug/disk after 5 days by paper disk method; assay type: functional
[19] = system: Streptomyces alboniger; assay: Antimicrobial activity against Streptomyces alboniger IFO 12738 assessed as inhibition of growth at 0.4 ug/disk after 5 days by paper disk method; assay type: functional; conditions: IFO 12738, 120 h, read-out: DIZ
[20] = system: Streptomyces scabiei; assay: Antimicrobial activity against Streptomyces scabiei ATCC 4917314 assessed as inhibition of growth at 0.4 ug/disk after 5 days by paper disk method; assay type: functional
[21] = system: Streptomyces alboniger; assay: Antimicrobial activity against Streptomyces alboniger IFO 12738 assessed as inhibition of growth at 4 ug/disk after 5 days by paper disk method; assay type: functional; conditions: IFO 12738, 120 h, read-out: DIZ
[22] = system: Streptomyces acidiscabies; assay: Antimicrobial activity against Streptomyces acidiscabies ATCC 4900315 assessed as inhibition of growth at 0.4 ug/disk after 5 days by paper disk method; assay type: functional; conditions: ATCC 4900315, 120 h, read-out: DIZ
[23] = system: Streptomyces scabiei; assay: Growth stimulation of Streptomyces scabiei ATCC 4917314 at 0.4 ug/disk after 5 days by paper disk method; assay type: functional; conditions: ATCC 4917314, 120 h, read-out: DIZ
[24] = system: Streptomyces scabiei; assay: Reduction in thaxtomin A production in Streptomyces scabiei ATCC 4917314 at 3.6 ug/ml after 5 days relative to untreated control; assay type: functional; design: scale not given: the % may be the effect or the level left
[25] = system: Streptomyces scabiei; assay: Reduction in concanamycins A and B production in Streptomyces scabiei ATCC 4917314 at 3.6 ug/ml after 5 days relative to untreated control; assay type: functional; design: scale not given: the % may be the effect or the level left
[26] = system: Streptomyces acidiscabies; assay: Antimicrobial activity against Streptomyces acidiscabies ATCC 4900315 assessed as mycelial weigh change at 0.45 ug/ml after 5 days relative to untreated control; assay type: functional
[27] = system: Streptomyces acidiscabies; assay: Reduction in thaxtomin A production in Streptomyces acidiscabies ATCC 4900315 at 0.45 ug/ml after 5 days relative to untreated control; assay type: functional; design: scale not given: the % may be the effect or the level left
[28] = system: Streptomyces scabiei; assay: Antimicrobial activity against Streptomyces scabiei ATCC 4917314 assessed as mycelial weigh change at 3.6 ug/ml after 5 days relative to untreated control; assay type: functional
[29] = system: Streptomyces acidiscabies; assay: Reduction in concanamycins A and B production in Streptomyces acidiscabies ATCC 4900315 at 0.45 ug/ml after 5 days relative to untreated control; assay type: functional, organism-based
[30] = IFO 12738, 120 h, read-out: DIZ

| Structure (SMILES) | diameter of the inhibition zone (DIZ) [3] | zone of inhibition at 4 µg/disc [4] [mm] | diameter of the inhibition zone (DIZ) [5] | zone of inhibition at 4 µg/disc [6] [mm] | diameter of the inhibition zone (DIZ) [7] | zone of inhibition at 4 µg/disc [10] [mm] | zone of inhibition at 0.4 µg/disc [12] [mm] | zone of inhibition at 0.4 µg/disc [13] [mm] | zone of inhibition at 4 µg/disc [17] [mm] | diameter of the inhibition zone (DIZ) [8] | diameter of the inhibition zone (DIZ) [12] | diameter of the inhibition zone (DIZ) [13] | diameter of the inhibition zone (DIZ) [16] | zone of inhibition at 0.4 µg/disc [19] [mm] | diameter of the inhibition zone (DIZ) [4] | also measured |
| --- | --- | --- | --- | --- | --- | --- | --- | --- | --- | --- | --- | --- | --- | --- | --- | --- |
| CN(C)[C@@H]1C(O)=C(C(N)=O)C(=O)[C@@]2(O)C(O)=C3C(=O)c4c(O)ccc(Cl)c4[C@@](C)(O)[C@H]3C[C@@H]12 [CHLORTETRACYCLINE] | inactive | 35 | inactive | 16 | inactive | 27 | 19 | 20 | 19 | – | – | – | – | – | – | Activity [1]: 0.6%; Activity [2]: Below limit of detection; zone of inhibition at 0.04 µg/disc [8]: 11 mm; Activity [9]: 0.1%; Activity [11]: 2.1%; Activity [14]: 6.8%; Activity [15]: <10%; zone of inhibition at 0.04 µg/disc ([16]; ATCC 4900315, 120 h, read-out: DIZ): 11 mm |
| CO/N=C(\C(=O)N[C@@H]1C(=O)N2C(C(=O)O)=C(COC(C)=O)CS[C@H]12)c1csc(N)n1 [CEFOTAXIME] | inactive | 15 | inactive | – | inactive | – | – | – | – | inactive | inactive | inactive | inactive | – | – | diameter of the inhibition zone (DIZ) [10]: inactive; zone of inhibition at 4 µg/disc ([18]; Streptomyces scabiei, ATCC 4917314, 120 h, read-out: DIZ): 22 mm |
| C=C(NC(=O)C(=C)NC(=O)c1csc(C2=N[C@@H]3c4csc(n4)[C@H]4NC(=O)c5csc(n5)[C@H]([C@](C)(O)[C@@H](C)O)NC(=O)[C@H]5CSC(=N5)/C(=C/C)NC(=O)[C@H]([C@@H](C)O)NC(=O)c5csc(n5)[C@]3(CC2)NC(=O)[C@H](C)NC(=O)C(=C)NC(=O)[C@H](C)NC(=O)[C@H]([C@@H](C)CC)N[C@@H]2C=Cc3c([C@H](C)O)cc(nc3[C@H]2O)C(=O)O[C@@H]4C)n1)C(N)=O [THIOSTREPTON] | inactive | 24 | inactive | 13 | inactive | 12 | 11 | – | – | inactive | – | inactive | inactive | 14 | – | – |
| CO[C@H]1/C=C/O[C@@]2(C)Oc3c(C)c(O)c4c(O)c(cc(O)c4c3C2=O)NC(=O)/C(C)=C\C=C\[C@H](C)[C@H](O)[C@@H](C)[C@@H](O)[C@@H](C)[C@H](OC(C)=O)[C@@H]1C [RIFAMYCIN] | inactive | 12 | – | – | – | 11 | – | – | – | inactive | inactive | inactive | inactive | 11 | – | zone of inhibition at 0.4 µg/disc [5, 30]: 21 mm; diameter of the inhibition zone (DIZ) [6]: inactive; diameter of the inhibition zone (DIZ) [20]: inactive |
| NC[C@H]1O[C@H](O[C@H]2[C@H](O)[C@@H](O[C@H]3O[C@H](CO)[C@@H](O)[C@H](N)[C@H]3O)[C@H](N)C[C@@H]2N)[C@H](O)[C@@H](O)[C@@H]1O [KANAMYCIN] | inactive | – | inactive | 18 | inactive | 18 | – | 10 | 13 | inactive | inactive | – | inactive | – | inactive | zone of inhibition at 4 µg/disc [21]: 14 mm; zone of inhibition at 0.4 µg/disc [22]: 12 mm |
| N[C@@H]1CONC1=O [CYCLOSERINE] | inactive | – | inactive | – | inactive | – | – | – | – | inactive | inactive | inactive | inactive | – | inactive | zone of inhibition at 0.4 µg/disc [23]: 24 mm; diameter of the inhibition zone (DIZ) [10]: inactive; Activity [18]: 44 mm |
| CN[C@@H]1[C@H](O)[C@H](NC)[C@H]2O[C@@]3(O)C(=O)C[C@@H](C)O[C@H]3O[C@@H]2[C@H]1O [SPECTINOMYCIN] | inactive | 31 | inactive | – | – | 19 | 20 | 11 | – | – | – | – | inactive | – | – | Activity [24]: 0.8%; Activity [25]: 1.1%; zone of inhibition at 4 µg/disc [7, 30]: 35 mm; zone of inhibition at 0.04 µg/disc [8]: 27 mm; Activity [26]: 8.31%; Activity [27]: 59%; Activity [28]: 5.01%; Activity [29]: Below limit of detection; diameter of the inhibition zone (DIZ) [20]: inactive |
| CN[C@@H]1[C@H](O[C@H]2[C@H](O[C@H]3[C@H](O)[C@@H](O)[C@H](N=C(N)N)[C@@H](O)[C@@H]3N=C(N)N)O[C@@H](C)[C@]2(O)C=O)O[C@@H](CO)[C@H](O)[C@H]1O [STREPTOMYCIN] | inactive | – | inactive | – | inactive | 28 | – | 19 | 18 | inactive | inactive | – | inactive | 15 | inactive | zone of inhibition at 0.4 µg/disc ([20]; ATCC 4917314, 120 h, read-out: DIZ): 13 mm |
